This is an account of results in patent US12667546B2, “Methods for manipulating cell state transitions in cancer” (AGENCY FOR SCIENCE, TECHNOLOGY AND RESEARCH, priority 2018, dated 2026).

“Also recorded” adds a separate entry of the source. Where two headings read alike, the source gives them in different places.

Experiment [1] deals with NAMEC8. The experiment is described as follows: Cell morphology of treated NAMEC8. To be noted: bexarotene, TTNPB, SGC-CBP30, UNC0642, A-485 1 μM, LLY-283, GSK591 20 nM, C-IN-1 500 nM. The format is cell-based, human. The method, then: Human mammary epithelial cell lines (HMLE) were generated as described and immortalized using retroviral vectors to express the catalytic subunit of the human telomerase enzyme, hTERT and the SV-40 Large T antigen. NAMEC8 was generated as described. Briefly, HMLE cells were grown to 50% confluency, followed by differential trypsinization for 1 minute with 0.05% trypsin. Detached cells were carefully collected and re-plated at approximately 200 cells per well of a 24-well plate. Upon expansion, wells were screened for populations that were morphologically mesenchymal and can be stably propagated. Clonal and non-clonal NAMEC cell lines were generated. NAMEC8 is a non-clonal line derived from at least 200 mesenchymal cells. HMLE cells and NAMECs were maintained in MEGM (Lonza).

The test system of experiment [2] is NAMEC8. The experiment is described as follows: Expression of EMT and lineage markers (qRT-PCR, immunoblot, immunofluorescence) in NAMEC8. To be noted: transcript and protein. The format is cell-based, human. The method, then: Cells were rinsed twice in ice-cold PBS. Total RNA was extracted using Trizol (Invitrogen) and column-purified with RNeasy kits (Qiagen). cDNA synthesis was performed with 500 ng of total RNA at 37° C. for 2 h using the SuperScript III First-Strand Synthesis System (Thermo Fisher Scientific), and subsequently diluted 5-fold. mRNA levels were measured with gene-specific primers listed below using the ABI Prism 7900HT Sequence Detection System 2.2 (Applied Biosystems). Results were normalized to GAPDH and analyzed using SDS 2.2 software.
Cells were harvested and scraped from culture dishes in ice-cold PBS. They were then centrifuged at 12000 rpm for 5 min at 4° C. The pellets were then snap frozen in liquid nitrogen or lysed in ice-cold RIPA lysis buffer (Thermo Scientific) and left on ice for 30 min. Subsequently, the lysates were centrifuged at 12000 rpm for 10 min at 4° C. The supernatants were then aspirated and placed in fresh tubes. Protein concentrations were determined using Coomaisse Blue. 50-80 μg total protein was mixed with NuPAGE™ LDS sample buffer and heated at 70° C. for 10 min. Samples were loaded into NuPAGE™ 4-12% Bis-Tris gels (precast polyacrylamide gel; Invitrogen™). Gel electrophoresis was done at 200V for 1.5 h and then blotted onto nitrocellulose membranes (Trans-Blot Turbo™ transfer pack; Bio-Rad). The membranes were blocked with 5% skimmed milk in Tris-buffered saline (TBS; 1st BASE) with 0.1% Tween-20 (Santa Cruz), and then incubated with primary antibodies overnight at 4° C. Thereafter, the membranes were incubated with a horseradish peroxidase (HRP)-conjugated secondary antibody at room temperature for one hour. Finally, the immunoreactive proteins were visualized by using an enhanced chemiluminescent (ECL) reagent (Thermo Scientific, 34075) with the Chemidoc™ Imager (Bio-Rad, 17001401).
Cell cultures were fixed in 4% paraformaldehyde and permeabilized with 0.25% Triton X-100, followed by blocking with 1% bovine serum albumin in PBST. Cells were incubated in specific primary antibodies, followed by the appropriate secondary antibodies conjugated with Alexa Fluor-488 or -594 (Molecular Probes). Cell nuclei were then stained with DAPI and then viewed and imaged with an Axio Observer D1 epifluorescence microscope with a built-in AxioCamMR3 camera (Zeiss), using the optimal filters and 100-200× magnifications.

Experiment [3] relates to NAMEC8. The experiment is described as follows: Flow cytometry of CD44 and CD24, NAMEC8. The format is cell-based, human. The method, then:
Cells were harvested as per FACS and resuspended in 100 μl of solution containing CD24-PE and CD44-APC (BD-Biosciences) antibodies diluted in 2% FBS in PBS (1:40 dilution). Cells were stained for 45 min with vortexing every 10 min to ensure even staining. After antibody incubation, cells were washed once and resuspended in 300 μl 2% FBS in PBS. Cells were then filtered through a 40 μm strainer and analyzed on BD LSR Fortessa X-20 Cell Analyzer.

Experiment [4] concerns NAMEC8-Ras. Kind of experiment: Tumor formation of pre-treated NAMEC8-Ras injected subcutaneously. The format is in vivo, NSG mice. To be noted: pre-treated cells, 11 weeks.
Experiment [5] relates to NAMEC8. Kind of experiment: Lipid droplet staining (Bodipy). The format is cell-based, human. To be noted: NAMEC8, with bexarotene. The method, then: Intracellular lipid droplets were visualized with fluorescent Bodipy dye. Cells in culture were fixed in 4% paraformaldehyde for 15 min at room temperature, rinsed twice with PBS and permeabilized with 0.2% TritonX-100 in PBS for 10 min and incubated with Bodipy diluted in PBS (final concentration 1 μg/ml) for overnight at 4° C. Cells were washed with PBS and stained with DAPI. Fluorescence images were obtained with an Axio Observer D1 epifluorescence microscope with a built-in AxioCamMR3 camera (Zeiss), using the optimal filters and 100-200× magnifications.

Experiment [6] has as its system SERPINE1prom-Luc reporter in NAMEC8 cells. Kind of experiment: Dual-Glo luciferase assay of SERPINE1prom-Luc reporter (FF/Ren). To be noted: primary screen, NAMEC8-SERPINE1prom-Luc cells grown 3 days with compound, relative to DMSO. The format is cell-based, human. The text has this: pGreenFire1-mCMV was cut using ClaI and SpeI and gel purified. Promoter sequences of genes Zeb1, Serpine1, CDH1, CD24, CD44, CD166 were amplified from human genomic DNA with pre-designed primers containing ClaI and SpeI restriction cut sites using AccuPrime Taq DNA Polymerase (Thermo Fisher Scientific). PCR products were then digested with restriction enzymes and gel-purified. Vector was ligated with PCR insert using Quick Ligase (Fermentas) and transformed into Stb12 competent cells. Colonies were picked and inoculated into TB media with ampicillin. Plasmids were then isolated using a plasmid miniprep kit (Qiagen) and sent for sequencing (1 stBASE Laboratories). After verifying the plasmid sequence, transfection into HEK293 cells was carried out to generate lentivirus. Transfection was carried out using FuGENE 6 (Promega). Viral supernatant was harvested at 24 h and 48 h. NAMEC8 cells were then infected twice with virus using polybrene ([…]) and checked for good transduction efficiency using Dual-Glo Luciferase System (Promega).
Stock plates of compound libraries were kindly prepared by GIS CHiP facility at 1 mM concentration in DMSO. NAMEC8-SERPINE1prom-Luc cells were seeded into 384 well plates at a density of 700 cells/well in a total volume of 50 μl, using an automated dispensing system (BioTek). 0.5 μl of compounds were then added to the wells the following day using a robotic pin transfer with a Bravo workstation (Agilent Technologies). Cells were then grown for 3 days and promoter-luciferase activity was measured using the Dual-Glo Luciferase System (Promega).
Assay was carried out according to manufacturer's instructions. To measure luciferase activity in 384 well plates, media was first removed from the plate. Firefly luciferase activity was determined by adding 30 μl Dual-Glo Luciferase substrate (Promega) to the wells and incubated for 10 min before measuring luminescence using a TECAN M1000 Pro plate reader. 15 μl Dual-Glo Stop & Glo substrate was then added to the wells, incubated for 10 min and measuring luminescence on the plate reader to determine Renilla luciferase activity. Promoter luciferase activity is then calculated by taking Firefly luciferase over Renilla luciferase.

The subject of experiment [7] is NAMEC8-SERPINE1prom-Luc cells. The experiment is described as follows: Renilla-luciferase (constitutive CMV promoter) readout for cell numbers. The class given is cell-based, human. To be noted: primary screen, Renilla as readout for cell numbers, relative to DMSO.
Experiment [8] concerns SUM159. Kind of experiment: Cell morphology of treated SUM159. The class given is cell-based, human. To be noted: bexarotene, TTNPB 1 μM. The method, then: HMLE-Twist-ER cells were generated as described. For EMT-induction, 100 nM of 4-hydroxytamoxifen in ethanol was added to the culture medium every 48 h to induce Twist expression. Control cells were treated with ethanol. MCF7-Slug+Sox9 cells were generated as previously described. HMLE-Zeb1 cells were generated by infection with FUW-Zeb1 and rTTA. Doxycycline was added to the culture medium every 48 h to induce Zeb1 expression. To generate tumorigenic cells from NAMEC8, cells were infected with pWZL-Blast-Ras. MCF7, MCF7-Ras, SUM159 were maintained as previously described. All cell cultures were maintained at 37° C. with 5% CO2.

Experiment [9] has as its system Estrogen response element (ERE)-luciferase reporter in NAMEC8. The experiment is described as follows: ERE-luciferase activity assay. The class given is cell-based, human. The method, then: ERE luciferase construct was kindly provided by Alan Prem Kumar, CSI, Singapore. To measure the ERE-luciferase activity, cells were seeded 24 h before transfection. ERE-luciferase (1 μg) and NSV-Renilla (0.1 μg) were packaged using Lipofectamine 2000 and transfected into NAMEC8. 24 h post-transfection, cells were reseeded into 96 well plates for drug treatment. Firefly and Renilla luciferase activities were measured with the Dual-Glo Luciferase System (Promega) 24 h post-treatment.

Experiment [10] concerns SUM159. Kind of experiment: Tumor growth of ex vivo pre-treated SUM159 injected subcutaneously. The class given is in vivo, NSG mice. To be noted: short-term (14 days) ex vivo treatment before transplantation. The method, then: (§1) All animal experiments were approved by the Agency for Science Technology and Research Singapore-Biological Resource Centre IACUC (Protocol number 140940). For pre-treated SUM159 and MCF7-Ras cells, 1×10^6 cells were suspended in 100 μl media containing 50% matrigel and injected subcutaneously into both flanks of female NSG mice. The NSG mice were checked for tumor by palpation once a week and tumors were harvested when they reached ˜15 mm in diameter. For treatment in NSG mice, 1×10^5 NAMEC8-Ras cells were suspended in 100 μl media containing 50% matrigel and injected subcutaneously into both flanks of NSG mice. The NSG mice were checked for tumor formation by palpation and when tumors were about 3 mm, mice were randomized into two groups: vehicle (5% DMSO in corn oil) and treatment (Bexarotene, 100 mg/kg/day oral dosing). Tumor size was measured every week using Vernier calipers and mice were sacrificed when tumors reached ˜15 mm or after ˜4 weeks of treatment. For patient-derived cells, 2×10^6 cells were injected subcutaneously per site in NSG mice.

Experiment [11] deals with MCF7-Ras. Kind of experiment: Tumor growth of ex vivo pre-treated MCF7-Ras injected subcutaneously. The format is in vivo, NSG mice. To be noted: ex vivo treatment before injection. The method, then: as §1
The subject of experiment [12] is metastatic TNBC. To be noted: cited from earlier work.

For `CNC(=O)Nc1ccc2c(c1)CC[C@@]21OC(=O)N(CC(=O)N(Cc2ccc(F)cc2)[C@@H](C)C(F)(F)F)C1=O` [A-485], the cell morphology result in experiment [1] was “tight clusters of epithelial islands were observed; also recorded: Epithelial-like morphology was observed”. The “expression of EMT and basal/luminal markers” value in experiment [2] is “upregulation of E-cadherin protein expression, with slight decrease in the mesenchymal markers”. Moreover, in [3], the CD44/CD24 surface expression result was “obvious increase in CD44 expression; also recorded: higher CD44 expression”. Further, the “tumor formation / tumor size” value in experiment [4] is on record as “Tumor formation was still observed”.
As for `COc1cc(C)c(C(=O)Oc2cc(C)c(C(=O)Oc3cc(C)c(C(=O)NC(C)C(=O)O)c(O)c3)c(O)c2)c(OC)c1` (stereo not shown) [AmidepsineA], in [2], the “expression of EMT and basal/luminal markers” value is “the gain in epithelial-luminal gene markers such as E-cadherin, KRT8, and MUC1 were suppressed”. Moreover, the “accumulation of lipid droplets during retinoid treatment” value in experiment [5] is recorded as “clear reductions in the accumulation of lipid droplets during retinoid treatment”.
With `CCCCCCCCCS(=O)(=O)Nc1ccccc1C(=O)O` [FSG67], in [2], the “expression of EMT and basal/luminal markers” value was “the gain in epithelial-luminal gene markers such as E-cadherin, KRT8, and MUC1 were suppressed”. In experiment [5], the “accumulation of lipid droplets during retinoid treatment” value is given as “clear reductions in the accumulation of lipid droplets during retinoid treatment”.
For the compound `C/C(=C\c1ccc(C(=O)O)cc1)c1ccc2c(c1)C(C)(C)CCC2(C)C` [TTNPB], in experiment [6], the “Avr FF/Renilla from DMSO” value came to 0.19. Also, in experiment [7], the “% Avr Renilla from DMSO” value is 58.46%. Also, the cell morphology entry in experiment [1] was “dramatic change in morphology from scattered, spindle and fibroblastic-like cells to an epithelial-like morphology”; in experiment [8], “dramatic change in morphology from scattered, spindle and fibroblastic-like cells to an epithelial-like morphology”. Moreover, the ERE-luciferase reporter activity entry in [9] was “increased”. In experiment [10], the tumorigenic potential result is on record as “severely crippled their tumorigenic potential for up till seven weeks post-transplantation”.
Regarding `CC1=C(/C=C/C(C)=C/C=C/C(C)=C/C(=O)O)C(C)(C)CCC1` [Tretinoin (Aberela), Tretinoin], the activity at 10 µM in [6] (Homo sapiens, 72 h, read-out: Avr FF/Renilla from DMSO) turned out to be 50%. Also, in [7] (Homo sapiens, 72 h, read-out: % Avr Renilla from DMSO), the viability at 10 µM is 87%. For the same compound, in [11], the tumor cell growth entry is “no impact on the tumor cell growth was observed”.
As to “Pembrolizumab: immune checkpoint monotherapy in Keynote 012 and Keynote 086 studies”, the response rate is given as 18% in [12] (Keynote 012, phase 1, monotherapy) and 5% in experiment [12] (Keynote 086, phase 2, monotherapy).
